Data reported in ChEMBL document CHEMBL4382244, “QSAR of 1,4-benzoxazin-3-one antimicrobials and their drug design perspectives” (2018).
Converted amounts (≈) assume the structure as drawn.

Columns and labels:
Assay type in all cases: functional
[1] = system: Candida albicans; test: Antifungal activity against Candida albicans after 24 hrs by spectrophotometric method
[2] = system: Escherichia coli; test: Antibacterial activity against Escherichia coli ATCC 25922 after 24 hrs by disk diffusion method; settings: ATCC 25922, 24 h
[3] = system: Candida albicans; test: Antifungal activity against Candida albicans after 24 hrs by disk diffusion method
[4] = system: Staphylococcus aureus; test: Antibacterial activity against Staphylococcus aureus ATCC 25923 after 24 hrs by disk diffusion method; settings: ATCC 25923, 24 h
[5] = system: Pseudomonas aeruginosa; test: Antibacterial activity against Pseudomonas aeruginosa ATCC 10145 after 16 to 20 hrs by microdilution method
[6] = system: Escherichia coli; test: Antibacterial activity against Escherichia coli ATCC 25922 after 16 to 20 hrs by microdilution method
[7] = system: Bacillus subtilis; test: Antibacterial activity against Bacillus subtilis
[8] = system: Staphylococcus aureus; test: Antibacterial activity against Staphylococcus aureus ATCC 29213 after 16 to 20 hrs by microdilution method
[9] = system: Enterococcus faecalis; test: Antibacterial activity against Enterococcus faecalis ATCC 29212 after 16 to 20 hrs by microdilution method
[10] = system: Pseudomonas aeruginosa; test: Antibacterial activity against Pseudomonas aeruginosa
[11] = system: Escherichia coli; test: Antibacterial activity against Escherichia coli
[12] = system: Candida albicans; test: Antifungal activity against Candida albicans
[13] = system: Klebsiella pneumoniae; test: Antibacterial activity against Klebsiella pneumoniae RSKK 576 after 16 to 20 hrs by microdilution method
[14] = system: Staphylococcus aureus; test: Antibacterial activity against Staphylococcus aureus
[15] = system: Candida albicans; test: Antifungal activity against Candida albicans CA-6 by micro-dilution method
[16] = system: Pichia kudriavzevii; test: Antifungal activity against Candida krusei ATCC 6258 by micro-dilution method
[17] = system: Saccharomyces cerevisiae; test: Antifungal activity against Saccharomyces cerevisiae ATCC 9763 by micro-dilution method

Row | MIC [1] | MIC [3] | MIC [4] | MIC [5] | MIC [6] | MIC [8] | MIC [9] | MIC [13] | Compound | further results
1 | 4480 µM (≈ 1000 µg/mL) |  |  |  |  |  |  |  | COC(=O)c1ccc2c(c1)OC(O)C(=O)N2 (stereo not given) | 
2 |  | 6630 µM (≈ 1500 µg/mL) | 734 µM (≈ 166 µg/mL) |  |  |  |  |  | O=C1C(O)Oc2cc([N+](=O)[O-])ccc2N1O (stereo not given) | MIC [2]: 3680 µM (≈ 833 µg/mL)
3 |  |  |  | 457 µM (≈ 114 µg/mL) | 457 µM (≈ 114 µg/mL) | 914 µM (≈ 228 µg/mL) | 457 µM (≈ 114 µg/mL) | 457 µM (≈ 114 µg/mL) | CCOC(=O)CC1Oc2ccc(C)cc2NC1=O (stereo not given) | MIC [7]: 89.2 µM (≈ 22.2 µg/mL); MIC [10]: 178 µM (≈ 44.5 µg/mL); MIC [11]: 89.2 µM (≈ 22.2 µg/mL); MIC [12]: 89.2 µM (≈ 22.2 µg/mL); MIC [14]: 89.2 µM (≈ 22.2 µg/mL)
4 |  |  |  | 1030 µM (≈ 256 µg/mL) | 1030 µM (≈ 256 µg/mL) | 1030 µM (≈ 256 µg/mL) | 1030 µM (≈ 256 µg/mL) | 1030 µM (≈ 256 µg/mL) | CCOC(=O)CC1Oc2cccc(C)c2NC1=O (stereo not given) | 
5 | 2370 µM (≈ 500 µg/mL) | 2370 µM (≈ 500 µg/mL) | 1580 µM (≈ 333 µg/mL) |  |  |  |  |  | COc1ccc2c(c1)OC(O)C(=O)N2O (stereo not given) | MIC [2]: 3150 µM (≈ 666 µg/mL)
6 |  | 3410 µM (≈ 666 µg/mL) | 2560 µM (≈ 500 µg/mL) |  |  |  |  |  | Cc1ccc2c(c1)OC(O)C(=O)N2O (stereo not given) | MIC [2]: 3410 µM (≈ 666 µg/mL)
7 |  |  |  | 544 µM (≈ 113 µg/mL) | 1090 µM (≈ 225 µg/mL) | 1090 µM (≈ 225 µg/mL) | 1090 µM (≈ 225 µg/mL) | 1090 µM (≈ 225 µg/mL) | O=C(O)CC1Oc2ccccc2NC1=O (stereo not given) | MIC [7]: 212 µM (≈ 44 µg/mL); MIC [10]: 212 µM (≈ 44 µg/mL); MIC [11]: 212 µM (≈ 44 µg/mL); MIC [12]: 106 µM (≈ 22 µg/mL); MIC [14]: 106 µM (≈ 22 µg/mL)
8 |  |  | 4480 µM (≈ 1000 µg/mL) |  |  |  |  |  | COC(=O)c1ccc2c(c1)OCC(=O)N2O [7-MeOCO-D-DIBOA] | 
9 | 2120 µM (≈ 350 µg/mL) | 2020 µM (≈ 333 µg/mL) | 2020 µM (≈ 333 µg/mL) |  |  |  |  |  | O=C1COc2ccccc2N1O | MIC [2]: 7570 µM (≈ 1250 µg/mL)
10 |  |  |  | 457 µM (≈ 128 µg/mL) | 457 µM (≈ 128 µg/mL) | 914 µM (≈ 256 µg/mL) | 457 µM (≈ 128 µg/mL) | 457 µM (≈ 128 µg/mL) | CCOC(=O)CC1Oc2cccc([N+](=O)[O-])c2NC1=O (stereo not given) | 
11 |  |  |  | 457 µM (≈ 128 µg/mL) | 457 µM (≈ 128 µg/mL) | 914 µM (≈ 256 µg/mL) | 457 µM (≈ 128 µg/mL) | 457 µM (≈ 128 µg/mL) | CCOC(=O)CC1Oc2ccc([N+](=O)[O-])cc2NC1=O (stereo not given) | 
12 | 1950 µM (≈ 350 µg/mL) | 1860 µM (≈ 333 µg/mL) | 1860 µM (≈ 333 µg/mL) |  |  |  |  |  | Cc1ccc2c(c1)OCC(=O)N2O | MIC [2]: 2790 µM (≈ 500 µg/mL)
13 | 6700 µM (≈ 1000 µg/mL) |  |  |  |  |  |  |  | O=C1COc2ccccc2N1 | 
14 |  |  |  |  |  |  |  |  | CCOC(=O)CC1Oc2ccc(C(O)Cn3ccnc3)cc2N(C)C1=O (stereo not given) | MIC [15]: 39.2 µM (≈ 14.1 µg/mL); MIC [16]: 39.2 µM (≈ 14.1 µg/mL); MIC [17]: 19.6 µM (≈ 7.04 µg/mL)
15 |  |  |  | 949 to 1030 µM (≈ 256 to 277 µg/mL) | 949 to 1030 µM (≈ 256 to 277 µg/mL) | 949 to 1030 µM (≈ 256 to 277 µg/mL) | 949 to 1030 µM (≈ 256 to 277 µg/mL) | 949 to 1030 µM (≈ 256 to 277 µg/mL) | CCOC(=O)CC1Oc2ccc(Cl)cc2NC1=O (stereo not given) | MIC [7]: 201 µM (≈ 54.1 µg/mL); MIC [10]: 100 µM (≈ 27 µg/mL); MIC [11]: 100 µM (≈ 27 µg/mL); MIC [12]: 100 µM (≈ 27 µg/mL); MIC [14]: 201 µM (≈ 54.1 µg/mL)
16 |  |  |  | 407 µM (≈ 125 µg/mL) | 407 µM (≈ 125 µg/mL) | 814 µM (≈ 250 µg/mL) | 407 µM (≈ 125 µg/mL) | 407 µM (≈ 125 µg/mL) | CCOC(=O)CC1Oc2ccc(C(=O)OCC)cc2NC1=O (stereo not given) | MIC [7]: 79.4 µM (≈ 24.4 µg/mL); MIC [10]: 159 µM (≈ 48.8 µg/mL); MIC [11]: 79.4 µM (≈ 24.4 µg/mL); MIC [12]: 39.7 µM (≈ 12.2 µg/mL); MIC [14]: 159 µM (≈ 48.8 µg/mL)

Row | MIC [1] | MIC [3] | MIC [4] | MIC [5] | MIC [6] | MIC [8] | MIC [9] | MIC [13] | Compound | further results
17 |  |  |  | 411 µM (≈ 128 µg/mL) | 411 µM (≈ 128 µg/mL) | 411 µM (≈ 128 µg/mL) | 206 µM (≈ 64 µg/mL) | 411 µM (≈ 128 µg/mL) | CCOC(=O)CC1Oc2ccc(-c3ccccc3)cc2NC1=O (stereo not given) | 
18 |  |  |  | 949 µM (≈ 279 µg/mL) | 949 µM (≈ 279 µg/mL) | 949 µM (≈ 279 µg/mL) | 949 µM (≈ 279 µg/mL) | 949 µM (≈ 279 µg/mL) | CCOC(=O)CC1Oc2cc([N+](=O)[O-])ccc2N(C)C1=O (stereo not given) | MIC [7]: 185 µM (≈ 54.6 µg/mL); MIC [10]: 92.7 µM (≈ 27.3 µg/mL); MIC [11]: 92.7 µM (≈ 27.3 µg/mL); MIC [12]: 46.4 µM (≈ 13.7 µg/mL); MIC [14]: 185 µM (≈ 54.6 µg/mL)
19 |  |  |  | 1010 µM (≈ 256 µg/mL) | 1010 µM (≈ 256 µg/mL) | 1010 µM (≈ 256 µg/mL) | 1010 µM (≈ 256 µg/mL) | 1010 µM (≈ 256 µg/mL) | CCOC(=O)CC1Oc2ccc(F)cc2NC1=O (stereo not given) | 
20 | 2980 µM (≈ 666 µg/mL) |  |  |  |  |  |  |  | CC(=O)ON1C(=O)C(O)Oc2ccccc21 (stereo not given) | 
21 |  | 7280 µM (≈ 1500 µg/mL) | 7280 µM (≈ 1500 µg/mL) |  |  |  |  |  | N#Cc1ccc2c(c1)OC(O)C(=O)N2O (stereo not given) | 
22 | 5120 µM (≈ 1000 µg/mL) |  |  |  |  |  |  |  | COc1ccc2c(c1)OC(O)C(=O)N2 (stereo not given) | 
23 | 768 µM (≈ 150 µg/mL) | 850 µM (≈ 166 µg/mL) | 3410 µM (≈ 666 µg/mL) |  |  |  |  |  | COc1ccc2c(c1)OCC(=O)N2O | MIC [2]: 6400 µM (≈ 1250 µg/mL)
24 | 2730 µM (≈ 500 µg/mL) | 2730 µM (≈ 500 µg/mL) | 1820 µM (≈ 333 µg/mL) |  |  |  |  |  | O=C1COc2cc(F)ccc2N1O [7-F-D-DIBOA] | MIC [2]: 4550 µM (≈ 833 µg/mL)
25 |  |  |  |  |  |  |  |  | CCOC(=O)CC1Oc2ccc(C(Cn3ccnc3)OCc3ccc(Cl)cc3)cc2N(C)C1=O (stereo not given) | MIC [15]: 915 µM (≈ 443 µg/mL); MIC [16]: 114 µM (≈ 55.3 µg/mL); MIC [17]: 915 µM (≈ 443 µg/mL)
26 |  |  |  |  |  |  |  |  | CCOC(=O)CC1Oc2cc([N+](=O)[O-])ccc2NC1=O (stereo not given) | MIC [7]: 241 µM (≈ 67.6 µg/mL); MIC [10]: 121 µM (≈ 33.8 µg/mL); MIC [11]: 241 µM (≈ 67.6 µg/mL); MIC [12]: 121 µM (≈ 33.8 µg/mL); MIC [14]: 121 µM (≈ 33.8 µg/mL)
27 | 3680 µM (≈ 666 µg/mL) | 3680 µM (≈ 666 µg/mL) | 2760 µM (≈ 500 µg/mL) |  |  |  |  |  | O=C1C(O)Oc2ccccc2N1O (stereo not given) | MIC [2]: 6900 µM (≈ 1250 µg/mL)
28 |  |  |  | 391 µM (≈ 128 µg/mL) | 391 µM (≈ 128 µg/mL) | 782 µM (≈ 256 µg/mL) | 391 µM (≈ 128 µg/mL) | 391 µM (≈ 128 µg/mL) | CCOC(=O)CC1Oc2ccc(S(=O)(=O)CC)cc2NC1=O (stereo not given) | 
29 |  |  |  |  |  |  |  |  | CCOC(=O)CC1Oc2cc(C)ccc2NC1=O (stereo not given) | MIC [7]: 303 µM (≈ 75.5 µg/mL); MIC [10]: 151 µM (≈ 37.7 µg/mL); MIC [11]: 151 µM (≈ 37.7 µg/mL); MIC [14]: 303 µM (≈ 75.5 µg/mL)
30 | 3330 µM (≈ 650 µg/mL) | 3410 µM (≈ 666 µg/mL) | 2560 µM (≈ 500 µg/mL) |  |  |  |  |  | COC1Oc2ccccc2N(O)C1=O (stereo not given) | 
31 |  |  |  | 1030 µM (≈ 257 µg/mL) | 1030 µM (≈ 257 µg/mL) | 1030 µM (≈ 257 µg/mL) | 1030 µM (≈ 257 µg/mL) | 1030 µM (≈ 257 µg/mL) | CCOC(=O)CC1Oc2cc(N)ccc2NC1=O (stereo not given) | MIC [7]: 201 µM (≈ 50.2 µg/mL); MIC [10]: 201 µM (≈ 50.2 µg/mL); MIC [11]: 201 µM (≈ 50.2 µg/mL); MIC [12]: 100 µM (≈ 25.1 µg/mL); MIC [14]: 201 µM (≈ 50.2 µg/mL)
